Experiments:
[1] = test system: GFP-14-3-3β and its binding proteins; assay: GFP-14-3-3β co-IP with LC-MS/MS label-free quantification, untreated versus PP1c-treated; design: species or system human
Method: (§1) HeLa Kyoto cells expressing transiently transfected pEGFP(C1)-14-3-3β or pEGFP(C1) control plasmid, were incubated with 20 nM Calyculin A (# 9902 S, Cell Signaling Technology) for 12 min. Cells were washed twice on ice with cold PBS and after addition of 500 µL lysis buffer (100 mM NaCl, 10 mM Tris, 0.1% IGEPAL, 1 mM EDTA, 1 mM EGTA, 20 nM Calyculin A, 1x cOmplete Mini protease inhibitor cocktail (Sigma), 1 mM DTT, 1 mM MnCl2) cells were scraped from plates, lysed by 10 pushes through an injection needle (21 G, BD) and the insoluble fraction was pelleted by centrifugation (10 min, 10^4 rcf, 4 °C). Supernatants were then subjected to incubation with 1 µM recombinant phosphatase or buffer for 1 h at 30 °C. Next, we subjected samples to immunoprecipitation using α-GFP nanobodies covalently coupled to agarose beads (2 h, 4 °C, obtained from the EMBL PEPcore Core Facility). Beads were then washed three times with lysis buffer and samples were eluted in 1x LDS sample buffer (Thermo Fisher Scientific) by heating to 70 °C for 10 min.
(§2) The samples were then reduced with 25 mM dithiothreitol (10 min at 70 °C) and alkylated with 55 mM chloroacetamide (room temperature, 30 min, in the dark). Proteins were run on a precast 4–12% NuPAGE gel (ThermoFisher Scientific) for about 1 cm to concentrate the sample prior to in-gel tryptic digestion, which was performed according to the standard procedures. The peptides obtained were dried to completeness and resuspended in 12 µL of buffer A (0.1% FA), and 5 µL of sample were injected per MS measurement. The experiment was carried out in three independent replicates.
(§3) The samples were analyzed by LC-MS/MS on a Dionex Ultimate 3000 nano-HPLC coupled online to a Fusion Lumos Tribrid mass spectrometer (Thermo Fisher Scientific). Peptides were delivered to a trap column (75 µm × 2 cm, packed in-house with 5 µm C18 resin; Reprosil PUR AQ, Dr. Maisch) and washed using 0.1% FA at a flow rate of 5 µL/min for 10 min. Subsequently, peptides were transferred to an analytical column (75 µm × 45 cm, packed in-house with 3 µm C18 resin; Reprosil Gold) applying a flow rate of 300 nL/min and separated using a 60 min linear gradient from 4% to 32% LC solvent B (0.1% FA, 5% DMSO in ACN) in LC solvent A (0.1% FA in 5% DMSO). The eluate from the analytical column was sprayed via a stainless steel emitter (Thermo Fisher Scientific) at a source voltage of 2.1 kV into the mass spectrometer. The transfer capillary was heated to 275 °C. The Fusion Lumos was operated in positive ionization mode and data-dependent acquisition (DDA), automatically switching between MS1 and MS2 spectrum acquisition. Full scan MS1 spectra were recorded in the Orbitrap from 360 to 1300 m/z at a resolution of 60k (automatic gain control (AGC) target value of 4e5 charges, maximum injection time (maxIT) of 50 ms). Up to 20 peptide precursors were isolated (isolation window, 1.7 m/z; maximum injection time, 25 ms; and AGC value, 1e5), fragmented by high-energy collision-induced dissociation (HCD) using 30% normalized collision energy (NCE), and analyzed at a resolution of 15k in the Orbitrap. Precursor ions that were singly charged, unassigned, or with charge states >6+ were excluded. The dynamic exclusion duration of fragmented precursor ions was 20 s.
(§4) Peptide and protein identification and LFQ were performed using MaxQuant software (version 1.6.1.0)[64] by searching the data against all canonical protein sequences as annotated in the Swissprot reference database (human proteins only, 20193 entries, downloaded 22 March 2016, internally annotated with PFAM domains) using the embedded search engine Andromeda[65]. The MaxQuant search was performed using two variable modifications; oxidation of methionine and N-terminal protein acetylation. Carbamidomethylation on cysteines was specified as a fixed modification. Trypsin (Trypsin/P) was specified as the proteolytic enzyme with up to two allowed missed cleavage sites.

[2] = test system: GFP-14-3-3β; assay: GFP-14-3-3β co-IP with LC-MS/MS, untreated GFP-14-3-3β versus GFP control (14-3-3 interactome); format: binding, human
Method: as §1, §2, §3, §4

[3] = GFP-14-3-3β co-IP LC-MS/MS, PP1 vs untreated, student's t-test, label-free quantification, 3 replicates each
[4] = GFP-14-3-3β co-IP LC-MS/MS, untreated vs GFP, student's t-test, label-free quantification, 3 replicates each
[5] = PP1 vs untreated, LFQ intensities, 3 replicates each
[6] = untreated vs GFP, LFQ intensities, 3 replicates each
[7] = pairwise comparison PP1 vs untreated, student's t-test, 3 replicates each, LC-MS/MS label-free quantification
[8] = pairwise comparison untreated GFP-14-3-3β vs GFP, student's t-test, 3 replicates each, LC-MS/MS label-free quantification
[9] = PP1 vs untreated, LFQ intensities, replicates 1-3
[10] = untreated vs GFP, LFQ intensities, replicates 1-3
[11] = log2 difference, pairwise comparison PP1 vs untreated, label-free quantification, 3 replicates each
[12] = log2 difference, pairwise comparison untreated vs GFP, label-free quantification, 3 replicates each
[13] = PP1 vs untreated, label-free quantification
[14] = untreated vs GFP, label-free quantification
[15] = pairwise comparison PP1 vs untreated
[16] = pairwise comparison untreated vs GFP

**Q.** PSIP1 was tested. Which “Difference (log2), PP1 vs untreated” value [1, 3] did it give?
**A.** -0.2351 log2

**Q.** What about the “Difference (log2), untreated vs GFP” value [2, 4] of the same substance?
**A.** 1.521 log2

**Q.** PTBP1 was tested. Which “Difference (log2), PP1 vs untreated” value [1, 5] did it give?
**A.** 0.7235 log2

**Q.** What about the “Difference (log2), untreated vs GFP” value [2, 6] of the same substance?
**A.** -0.5421 log2

**Q.** Which results are given for RACGAP1?
**A.** Difference (log2), PP1 vs untreated [1, 7]: -3.139 log2; Difference (log2), untreated vs GFP [2, 8]: 6.129 log2

**Q.** RAD50 was tested. Which “Difference (log2), PP1 vs untreated” value [1, 3] did it give?
**A.** -0.3723 log2

**Q.** What about the “Difference (log2), untreated vs GFP” value [2, 4] of the same substance?
**A.** 0.4724 log2

**Q.** RANBP2 was tested. Which “Difference (log2), PP1 vs untreated” value [1, 9] did it give?
**A.** -2.029 log2

**Q.** And the “Difference (log2), untreated vs GFP” value [2, 10]?
**A.** 2.443 log2

**Q.** Which results are given for RFC3?
**A.** Difference (log2), PP1 vs untreated [1, 11]: 1.3203; Difference (log2), untreated vs GFP [2, 12]: -0.5439

**Q.** RFC5 was tested. Which “Difference (log2), PP1 vs untreated” value [1, 11] did it give?
**A.** 1.3455

**Q.** What about the “Difference (log2), untreated vs GFP” value [2, 12] of the same substance?
**A.** -0.3031

**Q.** What does the source list for RICTOR?
**A.** Difference (log2), PP1 vs untreated [1, 9]: -0.7631 log2; Difference (log2), untreated vs GFP [2, 10]: 3.3487 log2

**Q.** How did the “Difference (log2), PP1 vs untreated” value [1, 3] turn out when RNF5 was run?
**A.** -0.2892 log2

**Q.** What about the “Difference (log2), untreated vs GFP” value [2, 4] of the same substance?
**A.** 0.3906 log2

**Q.** Which results are given for RNF213?
**A.** Difference (log2), PP1 vs untreated [1, 5]: 0.6499 log2; Difference (log2), untreated vs GFP [2, 6]: 0.8982 log2

**Q.** Which results are given for RPA3?
**A.** Difference (log2), PP1 vs untreated [1, 9]: -1.739 log2; Difference (log2), untreated vs GFP [2, 10]: -0.7925 log2

**Q.** With SEC16A as the substance, how does the “Difference (log2), PP1 vs untreated” value [1, 9] read?
**A.** -1.037 log2

**Q.** And the “Difference (log2), untreated vs GFP” value [2, 10]?
**A.** 2.809 log2

**Q.** Which “Difference (log2), PP1 vs untreated” value [1, 7] does the source give for SFN here?
**A.** -4.908 log2

**Q.** And the Difference ([2]; UntrtedvsGFP, Perseus raw output, LFQ intensity difference)?
**A.** 10.1517

**Q.** And the “Difference (log2), untreated vs GFP” value [2, 8]?
**A.** 10.1517 log2

**Q.** With SHROOM3 as the substance, how does the “Difference (log2), PP1 vs untreated” value [1, 7] read?
**A.** -2.387 log2

**Q.** And the “Difference (log2), untreated vs GFP” value [2, 8]?
**A.** 4.814 log2

**Q.** SLC7A5 was tested. Which “Difference (log2), PP1 vs untreated” value [1, 3] did it give?
**A.** -0.2534 log2

**Q.** And the “Difference (log2), untreated vs GFP” value [2, 4]?
**A.** 0.7726 log2

**Q.** SMARCA5 was tested. Which “Difference (log2), PP1 vs untreated” value [1, 9] did it give?
**A.** -1.929 log2

**Q.** And the “Difference (log2), untreated vs GFP” value [2, 10]?
**A.** 3.229 log2

**Q.** With SMN1 as the substance, how does the “Difference (log2), PP1 vs untreated” value [1, 3] read?
**A.** -0.1766 log2

**Q.** What about the “Difference (log2), untreated vs GFP” value [2, 4] of the same substance?
**A.** 1.023 log2

**Q.** For SNRNP200, which “Difference (log2), PP1 vs untreated” value [1, 3] is on record?
**A.** -0.2654 log2

**Q.** And the “Difference (log2), untreated vs GFP” value [2, 4]?
**A.** 1.652 log2

**Q.** Which “Difference (log2), PP1 vs untreated” value [1, 13] does the source give for SOGA1 here?
**A.** 0.818 log2

**Q.** What about the “Difference (log2), untreated vs GFP” value [2, 14] of the same substance?
**A.** -0.02242 log2

**Q.** How did the “Difference (log2), PP1 vs untreated” value [1, 7] turn out when SPTAN1 was run?
**A.** -2.033 log2

**Q.** And the “Difference (log2), untreated vs GFP” value [2, 8]?
**A.** 0.5148 log2

**Q.** What does the source list for SPTBN1?
**A.** Difference (log2), PP1 vs untreated [1, 9]: -1.61 log2; Difference (log2), untreated vs GFP [2, 10]: 0.3641 log2

**Q.** For SQSTM1, which “Difference (log2), PP1 vs untreated” value [1, 3] is on record?
**A.** -0.4375 log2

**Q.** And the “Difference (log2), untreated vs GFP” value [2, 4]?
**A.** 0.1051 log2

**Q.** SRGAP1 was tested. Which “Difference (log2), PP1 vs untreated” value [1, 7] did it give?
**A.** -5.178 log2

**Q.** And the “Difference (log2), untreated vs GFP” value [2, 8]?
**A.** 5.319 log2

**Q.** Which results are given for SRGAP2?
**A.** Difference (log2), PP1 vs untreated [1, 7]: -5.683 log2; Difference (log2), untreated vs GFP [2, 8]: 5.241 log2

**Q.** For SRSF1, which “Difference (log2), PP1 vs untreated” value [1, 7] is on record?
**A.** -3.492 log2

**Q.** And the “Difference (log2), untreated vs GFP” value [2, 8]?
**A.** 4.313 log2

**Q.** SRSF3 was tested. Which “Difference (log2), PP1 vs untreated” value [1, 7] did it give?
**A.** -2.154 log2

**Q.** And the “Difference (log2), untreated vs GFP” value [2, 8]?
**A.** 2.78 log2

**Q.** With SSRP1 as the substance, how does the “Difference (log2), PP1 vs untreated” value [1, 13] read?
**A.** 0.7419 log2

**Q.** And the “Difference (log2), untreated vs GFP” value [2, 14]?
**A.** 1.339 log2

**Q.** With STOM as the substance, how does the “Difference (log2), PP1 vs untreated” value [1, 15] read?
**A.** 0.02924 log2

**Q.** What about the “Difference (log2), untreated vs GFP” value [2, 16] of the same substance?
**A.** -0.5691 log2

**Q.** Which results are given for SUPT16H?
**A.** Difference (log2), PP1 vs untreated [1, 15]: 0.1332 log2; Difference (log2), untreated vs GFP [2, 16]: 0.2233 log2

**Q.** For SVIL, which “Difference (log2), PP1 vs untreated” value [1, 13] is on record?
**A.** 0.892 log2

**Q.** What about the “Difference (log2), untreated vs GFP” value [2, 14] of the same substance?
**A.** -1.069 log2

**Q.** SYNCRIP was tested. Which “Difference (log2), PP1 vs untreated” value [1, 15] did it give?
**A.** 0.2079 log2

**Q.** What about the “Difference (log2), untreated vs GFP” value [2, 16] of the same substance?
**A.** 0.5804 log2

**Q.** TAF15 was tested. Which “Difference (log2), PP1 vs untreated” value [1, 9] did it give?
**A.** -1.048 log2

**Q.** And the “Difference (log2), untreated vs GFP” value [2, 10]?
**A.** 0.6755 log2

**Q.** With TECR as the substance, how does the “Difference (log2), PP1 vs untreated” value [1, 5] read?
**A.** 0.5371 log2

**Q.** What about the “Difference (log2), untreated vs GFP” value [2, 6] of the same substance?
**A.** -0.1984 log2
